From patent US20200392107A1, “CYCLIC AMINE DERIVATIVE AND MEDICAL USE THEREOF” (Toray Industries, Inc., priority 2018, published 2020)

How the values were obtained:
[1] = tested on: IL-17 production in mouse splenocytes; test: Suppressive effect on IL-17 production by IL-23 stimulation in mouse splenocytes; format: cell-based; conditions: Splenocyte, 72 h, at 5 μmol/L of the test compound, human IL-23 10 ng/mL, cultured 3 days, read-out: IL-17 production inhibition rate (%)
Method: Using mouse splenocytes, the suppressive effect of the cyclic amine derivative (I) or a pharmacologically acceptable salt thereof on IL-17 production by IL-23 stimulation was evaluated by a partially modified method mentioned in The Journal of Biological Chemistry, 2003, Vol. 278, No. 3, p. 1910-1914.
A single cell suspension was prepared from the spleen of C57BL/6J mice (male or female, 6 to 30 weeks old) (Charles River Laboratories Japan, Inc. or CLEA Japan, Inc.) and splenocytes were prepared using Histopaque-1083 (Sigma-Aldrich Japan). The culture medium was used by adding 10% FBS (Gibco), 50 U/mL of penicillin-50 μg/mL of streptomycin (Gibco), 50 μmol/L of 2-mercaptoethanol (Gibco), and 100 U/mL of human IL-2 (Cell Science & Technology Institute, Inc.) to RPMI1640 medium (Gibco). A test compound was dissolved in DMSO and then diluted with the culture medium to have a final concentration of DMSO of 0.1% before use. Splenocytes (3×10^5 cells/well) prepared in the culture medium were seeded in wells of a 96-well flat-bottom plate (Corning Incorporated), the test compound and 10 ng/mL of human IL-23 (R & D systems, Inc.) were added thereto, and the cells were cultured at 37° C. under 5% CO2 for 3 days. A well without addition of human IL-23 and without addition of the test compound and a well with addition of human IL-23 and without addition of the test compound were prepared. After completion of the culture, the culture supernatant was collected and the IL-17 production amount in the supernatant was determined by ELISA method (R & D systems, Inc.).
The IL-17 production inhibition rate (%) was calculated from Formula (2).
IL-17 production inhibition rate (%)=(1−((IL-17 production amount with addition of IL-23 and with addition of the test compound)−(IL-17 production amount without addition of IL-23 and without addition of the test compound))/((IL-17 production amount with addition of IL-23 and without addition of the test compound)−(IL-17 production amount without addition of IL-23 and without addition of the test compound)))×100 (2).

[2] = target: T1, RORγ-LBD (GST-fused ligand-binding domain of RORγ) / coactivator TRAP220/DRIP-2 (Homo sapiens, UniProt P51449); test: Inhibitory effect on RORγ-coactivator binding (LanthaScreen TR-FRET RORγ Coactivator Assay); format: biochemical; conditions: at 33 μmol/L of the test compound; read-out: RORγ-coactivator binding inhibition rate (%)
T1 construct: purchased Invitrogen
T1 sequence (P51449 269-508 limits assumed): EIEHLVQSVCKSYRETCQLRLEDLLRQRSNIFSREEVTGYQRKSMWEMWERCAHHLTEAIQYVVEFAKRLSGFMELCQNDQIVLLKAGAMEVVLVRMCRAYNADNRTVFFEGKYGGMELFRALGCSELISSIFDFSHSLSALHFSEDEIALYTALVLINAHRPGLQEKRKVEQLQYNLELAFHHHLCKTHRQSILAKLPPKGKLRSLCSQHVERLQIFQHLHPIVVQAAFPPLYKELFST
Method: The inhibitory effect of the cyclic amine derivative (I) or a pharmacologically acceptable salt thereof on the binding between a ligand-binding domain of RORγ (hereinafter referred to as RORγ-LBD) and a coactivator was evaluated using Invitrogen's LanthaScreen™ TR-FRET Retinoid-Related Orphan Receptor (ROR) gamma Coactivator Assay kit utilizing time-resolved fluorescence energy transfer (TR-FRET).
A test compound was dissolved in DMSO and diluted with TR-FRET Coregulator Buffer D (Invitrogen) containing 5 mmol/L of DTT to have a final DMSO concentration of 1% before use. To each well of a 384-well black plate (Corning Inc.), 4 nmol/L of GST-fused RORγ-LBD (Invitrogen) diluted with the buffer mentioned above and the test compound were added. A well without addition of the test compound and without addition of GST-fused RORγ-LBD (background) and a well without addition of the test compound and with addition of GST-fused RORγ-LBD (control) were prepared. Next, 150 nmol/L of fluorescein-labeled TRAP220/DRIP-2 (Invitrogen) diluted with the buffer mentioned above and 32 nmol/L of terbium-labeled anti-GST antibody (Invitrogen) were added to each well. After incubating the plate at room temperature for 16 to 24 hours, the fluorescence at 495 nm and 520 nm when excited at 320 nm was measured for each well and the ratio (fluorescence value at 520 nm/fluorescence value at 495 nm) was calculated.
The fold change with addition of the test compound (ratio with addition of the test compound/ratio of the background), the fold change of the control (ratio of the control/ratio of the background), and the fold change of the background (ratio of the background/ratio of the background) were calculated, and then the inhibition rate of binding between RORγ-LBD and a coactivator (hereinafter referred to as RORγ-coactivator binding inhibition rate) (%) was calculated from Formula (1):
RORγ-coactivator binding inhibition rate (%)=(1−((Fold change with addition of the test compound)−(Fold change of the background))/((Fold change of the control)−(Fold change of the background)))×100 (1).

Row | inhibition at 33 µM [2] | Compound | inhibition at 5 µM [1]
1 | 96.7% | CC(=O)N1CCCC[C@@H]1C(=O)Nc1cc(Cl)c2c(c1)CCN2Cc1ccc(C(F)(F)F)cc1 [Example 4, (R)-1-acetyl-N-(7-chloro-1-(4-(trifluoromethyl)benzyl)indolin-5-yl)piperidine-2-carboxamide] | 99.9%
2 | 96.8% | CC(=O)N1CCCC[C@@H]1C(=O)Nc1cc(Cl)c2c(c1)CCN2C[C@H]1CC[C@H](C(F)(F)F)CC1 [Example 9, (R)-1-acetyl-N-(7-chloro-1-((trans-4-(trifluoromethyl)cyclo-hexyl)methyl)indolin-5-yl)piperidine-2-carboxamide] | 99.5%
3 | 96.9% | CC(=O)N1CCCC[C@@H]1C(=O)Nc1cc(Cl)c2c(c1)CCCN2Cc1ccc(C(F)(F)F)cc1 [Example 1, (R)-1-acetyl-N-(8-chloro-1-(4-(trifluoromethyl)benzyl)-1,2,3,4-tetrahydroquinolin-6-yl)piperidine-2-carboxamide] | 98%
